Read-outs that look alike come from different tables or passages of the source.
How the values were obtained:
NALM-6 [1] = experiment: cells; type: cell-based; settings: Homo sapiens, NALM-6, read-out: NALM-6 IC50
MOLT-3 [2] = experiment: cells; type: cell-based; settings: Homo sapiens, MOLT-3, read-out: MOLT-3 IC50
ALL1 = experiment: cells; type: cell-based; settings: Homo sapiens, read-out: ALL1 IC50
RS4;11 = experiment: cells; type: cell-based; settings: Homo sapiens, RS4-11, read-out: RS4;11 IC50
NALM-6 [3] = experiment: Anti-proliferative activity (colony counts), NALM-6; type: cell-based, human
Text: (§1) The dose-responsive anti-proliferative activity of various organic arsenic acid substituted compounds against leukemic cell lines (NALM-6 and MOLT-3) is shown below in Table 3. FIGS. 3A-3F show dose response curves in ALL1, NALM-6, and MOLT-3 cells.

MOLT-3 [4] = experiment: Anti-proliferative activity (colony counts), MOLT-3; type: cell-based, human
Text: as §1

NALM-6 [5] = experiment: In situ detection of apoptosis (nick-end-labeling, ApopTag), NALM-6; type: cell-based, human; settings: NALM-6, WHI-P381 2 μg/ml, 36 hour incubation (FIG. 1B)
Experimental: (§2) Assay for apoptosis was performed by the in situ nick-end-labeling method using an ApopTag in situ detection kit (Oncor, Gaithersburg, Md.) according to the manufacturer's recommendations. Exponentially growing cells (NALM-6 and MOLT-3) were seeded in 6-well tissue culture plates at a density of 50×10^4 cells/well and cultured for 36 hours at 37° C. in a humidified 5% CO2 atmosphere. The supernatant culture medium was carefully aspirated and replaced with fresh medium alone or fresh medium containing WHI-P381 at a concentration of 2 μg/ml.
(§3) After a 36 hour incubation at 37° C. in a humidified 5% CO2 incubator, the supernatants were carefully aspirated and the cells were treated for 1-2 minutes with 0.1% trypsin. The detached cells were collected into a 15 ml centrifuge tube, washed with medium and pelleted by centrifugation at 1000 rpm for 5 minutes. Cells were resuspended in 50 μl of PBS, transferred to poly-L-lysine coated coverslips and allowed to attach for 15 minutes. The cells were washed once with PBS and incubated with equilibration buffer for 10 minutes at room temperature.
(§4) After removal of the equilibration buffer, cells were incubated for 1 hour at 37° C. with the reaction mixture containing terminal deoxynucleotidyl transferase (TdT) and digoxigenin-11-UTP for labeling of exposed 3′-hydroxyl ends of fragmented nuclear DNA. […]

MOLT-3 [6] = experiment: In situ detection of apoptosis (nick-end-labeling, ApopTag), MOLT-3; type: cell-based, human; settings: MOLT-3, WHI-P381 2 μg/ml, 36 hour incubation (FIG. 1D)
Experimental: as §2, §3, §4

BT20 [7] = tested on: BT20
BT20 [8] = experiment: cells; settings: Homo sapiens, BT-20, read-out: BT20 IC50
[9] = tested on: leukemic cell lines (NALM-6, MOLT-3, ALL1, RS4;11); experiment: cells; settings: Homo sapiens, read-out: IC50 values in leukemic cell lines
primary leukemic cells = experiment: MTT cytotoxicity against primary leukemic cells; settings: cells from 5 leukemia patients, FIGS. 4A-4E
NALM-6 cells = experiment: MTT cytotoxicity over 1-4 days versus arsenic trioxide, NALM-6; settings: for IC50: Homo sapiens
[10] = NALM-6, concentration 0.1 (mM as printed)
[11] = NALM-6, concentration 1 (mM as printed)
[12] = NALM-6, concentration 10 (mM as printed)
[13] = NALM-6, concentration 100 (mM as printed)
[14] = MOLT-3, concentration 0.1 (mM as printed)
[15] = MOLT-3, concentration 1 (mM as printed)
[16] = MOLT-3, concentration 10 (mM as printed)
[17] = MOLT-3, concentration 100 (mM as printed)

CSc1nccc(Nc2ccccc2[As](=O)(O)O)n1 [WHI-P381, 2-Methylthio4-(2′-phenylarsenic acid)-aminopyrimidine]
IC50 (NALM-6 [1]): < 1900 nM
IC50 (MOLT-3 [2]): < 1900 nM
IC50 (ALL1): < 1900 nM
IC50 (RS4;11): < 1900 nM
% Inhibition (NALM-6 [3]; [10]): 100%
Mean No. of Colonies/10^6 Cells (NALM-6 [3]; [10]): 0 Colonies/10^6 Cells
% Inhibition (NALM-6 [3]; [11]): 100%
Mean No. of Colonies/10^6 Cells (NALM-6 [3]; [11]): 0 Colonies/10^6 Cells
% Inhibition (NALM-6 [3]; [12]): 100%
Mean No. of Colonies/10^6 Cells (NALM-6 [3]; [12]): 0 Colonies/10^6 Cells
% Inhibition (NALM-6 [3]; [13]): 100%
Mean No. of Colonies/10^6 Cells (NALM-6 [3]; [13]): 0 Colonies/10^6 Cells
% Inhibition (MOLT-3 [4]; [14]): 70.2%
Mean No. of Colonies/10^6 Cells (MOLT-3 [4]; [14]): 429(202, 656) Colonies/10^6 Cells
% Inhibition (MOLT-3 [4]; [15]): 100%
Mean No. of Colonies/10^6 Cells (MOLT-3 [4]; [15]): 0 Colonies/10^6 Cells
% Inhibition (MOLT-3 [4]; [16]): 100%
Mean No. of Colonies/10^6 Cells (MOLT-3 [4]; [16]): 0 Colonies/10^6 Cells
% Inhibition (MOLT-3 [4]; [17]): 100%
Mean No. of Colonies/10^6 Cells (MOLT-3 [4]; [17]): 0 Colonies/10^6 Cells
apoptosis: fluorescence versus untreated cells (NALM-6 [5]): much greater Fluorescence
apoptosis: fluorescence versus untreated cells (MOLT-3 [6]): much greater Fluorescence
melting point: 225 to 228 °C
cytotoxic against the breast cancer cell line BT20 (in words) (BT20 [7]): cytotoxic
IC50 (BT20 [8]): 17300 nM
IC50 [9]: ≤ 1900 nM
cytotoxic activity against primary leukemic cells (in words) (primary leukemic cells): susceptible to the cytotoxic effects
IC50 (NALM-6 cells; NALM-6, 24 h, read-out: Cytotoxicity against NALM-6 cells IC50, Day 1): 2030 nM
IC50 (NALM-6 cells; NALM-6, 48 h, read-out: Cytotoxicity against NALM-6 cells IC50, Day 2): 850 nM
IC50 (NALM-6 cells; NALM-6, 72 h, read-out: Cytotoxicity against NALM-6 cells IC50, Day 3): 700 nM
IC50 (NALM-6 cells; NALM-6, 96 h, read-out: Cytotoxicity against NALM-6 cells IC50, Day 4): 680 nM
cytotoxicity compared with arsenic trioxide (in words) (NALM-6 cells; NALM-6, 0.07 μM to 5 μM, 1-4 days, FIGS. 2A-2D): more cytotoxic than arsenic trioxide
